pKi: −log10 of the molar value.

This assay addresses 4-aminobutyrate aminotransferase, mitochondrial (Sus scrofa, UniProt P80147). In words: Competitive inhibition of pig GABA aminotransferase using alpha-ketoglutarate as substrate by SSADH-coupled assay.

Sequence of 4-aminobutyrate aminotransferase, mitochondrial (P80147 whole entry): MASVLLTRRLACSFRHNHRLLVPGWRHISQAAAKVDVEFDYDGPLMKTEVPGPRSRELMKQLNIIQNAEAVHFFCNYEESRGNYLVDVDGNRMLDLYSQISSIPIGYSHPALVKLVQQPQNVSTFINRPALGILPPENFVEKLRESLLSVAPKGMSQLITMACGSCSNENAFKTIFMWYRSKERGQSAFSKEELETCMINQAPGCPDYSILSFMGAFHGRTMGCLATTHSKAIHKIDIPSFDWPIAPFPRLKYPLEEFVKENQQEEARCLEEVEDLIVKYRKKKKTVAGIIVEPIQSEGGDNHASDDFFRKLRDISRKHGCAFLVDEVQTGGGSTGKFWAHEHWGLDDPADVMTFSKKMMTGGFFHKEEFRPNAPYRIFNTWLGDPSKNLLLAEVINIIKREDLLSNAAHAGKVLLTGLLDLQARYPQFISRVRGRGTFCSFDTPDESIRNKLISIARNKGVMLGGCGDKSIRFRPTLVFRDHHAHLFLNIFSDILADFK

The pKi is the negative decadic logarithm of the Ki, by convention in mol/L. A high value points to a low Ki. `NCc1ccc(C(=O)O)o1`: the negative-log Ki (pKi) was 2.85. `NCc1ccc(C(=O)O)s1`: the pKi is 2.60. For `NCc1ccc(C(=O)O)[nH]1` the value was 2.67; for `NCc1coc(C(=O)O)c1`, 2.79; for `NCc1csc(C(=O)O)c1`, 2.87.

Regarding `NCc1c[nH]c(C(=O)O)c1`, the pKi is 2.80. For `NCc1cocc1C(=O)O`, the pKi is 2.64. The compound `NCc1cscc1C(=O)O` showed a pKi of 2.54.

Values taken from ChEMBL document CHEMBL2146416 (Bioorg Med Chem, 2012).
